# Experimental data taken from BindingDB's records for doi:10.1016/j.bioorg.2016.05.009 (Birla Institute of Technology, 2016).
# Target: Gag-Pol polyprotein (Human immunodeficiency virus type 1 group M subtype B (isolate HXB2), UniProt P04585)
# Test: HIV-1 RT Colorimetric Assay
# Experimental: The reaction mixture was set with template primer complex, RT enzyme and dNTPs in a lysis buffer with or without inhibitors. The reaction mixture was incubated at 37 °C for 1 h and then transferred to streptavidin-coated microtitre plate (MTP). The biotin-labeled dNTPs that were incorporated in the template due to activity ofRT, bound to streptavidin. The unbound dNTPs were washed using wash buffer and anti-DIG-POD was added to the MTP. The DIGlabeled dNTPs incorporated in the template were bound to an anti-DIG-POD antibody. The unbound anti-DIG-POD was washed again with washing buffer and the peroxide substrate (ABST) was added to the MTP. A colored reaction product was produced during the cleavage of the substrate catalyzed by a peroxide enzyme. The absorbance of the sample was determined as an optical density (OD) at 405 nm using a micro titer plate ELISA reader.
row,SMILES,IC50 [µM]
1,"COc1ccc2c(c1)CCCN2CCC(=O)N1CCN(c2cccc(Cl)c2Cl)CC1 [1-(4-(2,3-dichlorophenyl)piperazin-1-yl)-3-(6-methoxy-3,4-dihydroquinolin-1(2H)-yl)propan-1-one (6o)]",14.5
2,"COc1ccc2c(c1)CCCN2CCC(=O)N1CCN(c2ccccc2Cl)CC1 [1-(4-(2-chlorophenyl)piperazin-1-yl)-3-(6-methoxy-3,4-dihydroquinolin-1(2H)-yl)propan-1-one (6i)]",32.9
3,"COc1ccc2c(c1)CCCN2CCC(=O)N1CCN(c2ccccc2F)CC1 [1-(4-(2-fluorophenyl)piperazin-1-yl)-3-(6-methoxy-3,4-dihydroquinolin-1(2H)-yl)propan-1-one (6g)]",47.5
4,"COc1ccc2c(c1)CCCN2CCC(=O)N1CCN(c2cccc(Cl)c2)CC1 [1-(4-(3-chlorophenyl)piperazin-1-yl)-3-(6-methoxy-3,4-dihydroquinolin-1(2H)-yl)propan-1-one (6j)]",18.6
5,"COc1ccc2c(c1)CCCN2CCC(=O)N1CCN(c2ccc(Cl)cc2)CC1 [1-(4-(4-chlorophenyl)piperazin-1-yl)-3-(6-methoxy-3,4-dihydroquinolin-1(2H)-yl)propan-1-one (6k)]",24.9
6,"COc1ccc2c(c1)CCCN2CCC(=O)N1CCN(c2ccc(F)cc2)CC1 [1-(4-(4-fluorophenyl)piperazin-1-yl)-3-(6-methoxy-3,4-dihydroquinolin-1(2H)-yl)propan-1-one (6h)]",78.5
7,"COc1ccc2c(c1)CCCN2CCC(=O)N1CCN(Cc2ccccc2)CC1 [1-(4-benzylpiperazin-1-yl)-3-(6-methoxy-3,4-dihydroquinolin-1(2H)-yl)propan-1-one (6m)]",> 100
8,"COc1ccc2c(c1)CCCN2CCC(=O)N1CCN(c2ccccc2OC)CC1 [3-(6-methoxy-3,4-dihydroquinolin-1(2H)-yl)-1-(4-(2-methoxyphenyl)piperazin-1-yl)propan-1-one (6d)]",52.8
9,"COc1cccc(N2CCN(C(=O)CCN3CCCc4cc(OC)ccc43)CC2)c1 [3-(6-methoxy-3,4-dihydroquinolin-1(2H)-yl)-1-(4-(3-methoxyphenyl)piperazin-1-yl)propan-1-one (6e)]",58.2
10,"COc1ccc(N2CCN(C(=O)CCN3CCCc4cc(OC)ccc43)CC2)cc1 [3-(6-methoxy-3,4-dihydroquinolin-1(2H)-yl)-1-(4-(4-methoxyphenyl)piperazin-1-yl)propan-1-one (6f)]",> 100
11,"COc1ccc2c(c1)CCCN2CCC(=O)N1CCN(c2ccc([N+](=O)[O-])cc2)CC1 [3-(6-methoxy-3,4-dihydroquinolin-1(2H)-yl)-1-(4-(4-nitrophenyl)piperazin-1-yl)propan-1-one (6l)]",82.7
12,"COc1ccc2c(c1)CCCN2CCC(=O)N1CCN(c2ccccn2)CC1 [3-(6-methoxy-3,4-dihydroquinolin-1(2H)-yl)-1-(4-(pyridin-2-yl)piperazin-1-yl)propan-1-one (6n)]",48.6
13,"COc1ccc2c(c1)CCCN2CCC(=O)N1CCN(c2ccccc2C)CC1 [3-(6-methoxy-3,4-dihydroquinolin-1(2H)-yl)-1-(4-o-tolylpiperazin-1-yl)propan-1-one (6b)]",12.5
14,"COc1ccc2c(c1)CCCN2CCC(=O)N1CCN(c2ccc(C)cc2)CC1 [3-(6-methoxy-3,4-dihydroquinolin-1(2H)-yl)-1-(4-p-tolylpiperazin-1-yl)propan-1-one (6c)]",28.5
15,"COc1ccc2c(c1)CCCN2CCC(=O)N1CCN(c2ccccc2)CC1 [3-(6-methoxy-3,4-dihydroquinolin-1(2H)-yl)-1-(4-phenylpiperazin-1-yl)propan-1-one (6a)]",24.3
